Measured values published in US4578498A, “Phenylethylene derivatives and their use as drugs” (BASF Aktiengesellschaft, priority 1982, dated 1986).
Read-outs that look alike come from different tables or passages of the source.

Columns and labels:
[1] = test system: utriculi in the Rhino mouse; test: Reduction of the number of utriculi in the Rhino mouse model; type: in vivo, Rhino mice; conditions: for inhibition in vivo at 0.1 % / inhibition in vivo at 0.2 %: read-out: Decrease in % (number of utriculi / cysts)
comedos = test: Comedolytic activity on tar-induced comedos of rabbit ears; type: in vivo, albino rabbits; conditions: Oryctolagus cuniculus, 336 h, topical, read-out: Comedolytic activity in % (decrease in number of comedos vs control ear)
Method: The development of comedos was induced by one topical application of 0.5 ml per day, onto both ears of albino rabbits, of 5% of tar in Polyan® (ester of lanolin alcohol and linolenic acid, produced by Amerchol Corp., U.S.A.), the application being carried out on 5 successive days per week over a period of two weeks. Thereafter, the test substances in ethanol/propylene glycol (70:30, v/v, 0.5 ml) were applied topically onto the inner skin area of one ear of each rabbit once per day on 5 successive days per week over a period of two weeks. The second ear of each animal served as an untreated control.
After further treatment for 72 hours with the test substance, the rabbits were sacrificed. A skin sample of about 6 cm^2 was taken from each auricle just outside the oratory passage, and this sample was divided into sections of about 1 cm^2. These pieces of skin were immersed for 2 minutes in warm water at 60° C. The epidermis was carefully peeled off using the flat end of a spatula and a small forceps, and was placed, dermal side up, on the slide. After drying in air overnight, the test strips were assessed under a stereomicroscope. […] The comedos were recognizable as discrete, cylindrical to round keratose particles which were of similar appearance and whose size and number were proportional to the activity of the test substance. The comedolytic effect was determined as the decrease in the number of comedos, in %, compared with the control ear (cf. Table 2).

[2] = test system: white male New Zealand rabbits; conditions: rabbit, in vivo
Method: 5. The toleration of the test substances after topical administration was determined in experiments with 6 white male New Zealand rabbits in each case. In the case of each test animal, an area of about 6 cm^2 on the back was shaved. The test substances were dissolved in ethanol/propylene glycol (70:30, v/v), and 0.2 ml of this solution was applied with an automatic micropipette on 9 successive days by carefully rubbing the solution into a particular point twice daily at 6-hour intervals.
Before each application in the morning, all test areas were assessed subjectively in respect of erythemas and scaling, a numerical scale from 0 to 3 being employed (0=no reaction, 1=mild, 2=moderate and 3=severe). The average erythema formation and scaling gives the relative irritant level of the test substances in comparison with vitamin A acid.

[3] = test system: leukemia cells of patients having promyelocytic leukemia; test: Induction of cell differentiation in promyelocytic leukemia cells; type: cell-based, human (patients)
tracheal epithelium = test: Elimination of keratinization in tracheal cultures (antitumor action); type: cell-based, hamster; conditions: Mesocricetus auratus, 240 h
Source text: The test model is used to determine the intrinsic property of the novel compounds of increasing the differentiation of epithelial cells. The great significance of this screening method in predicting the potential use of a new retinoid for the prevention of tumors in epithelial tissue is generally recognized. Moreover, it is known that every in vitro test system has disadvantages in respect of the prediction of in vivo activity. Apart from these basic restrictions, tracheal cell cultures are one of the most useful methods of determining the biological activity of novel retinoids.
The ability of the test substances to eliminate keratinization in a defined in vitro system was determined. Tracheae of hamsters at a very early stage of vitamin A deficiency were used for culture. […] Their average weight was from 47 to 52 g. The tracheal epithelium was in general slightly columnar or pavement-like and had only isolated areas of squamous metaplasia. Each trachea was opened along the membrane-like dorsal wall, from the larynx to the carina, and cultured in a serum-free medium (CMRL-1066 supplemented by 1.0 μg/ml of crystalline bovine insulin, 0.1 μg/ml of hydrocortisone hemisuccinate, 2mM of glutamine, 100 units/ml of penicillin and 100 μg/ml of streptomycin). The cultures were aerated with a mixture of 50% of oxygen, 45% of nitrogen and 5% of carbon dioxide, and the culture dishes were shaken gently to bring the tracheae into contact with the gas and the culture medium. All tracheae were initially kept for 3 days in the culture medium without the addition of retinoid. After this period, some tracheae were removed. […] The remaining tracheae were divided into groups, which were then treated with the following additives:
(a) The test substance dissolved in spectroscopically pure dimethylsulfoxide (the final concentration of dimethylsulfoxide in the culture medium was never greater than 0.1%).
(b) An equivalent amount of dimethylsulfoxide without a further additive.
The nutrient medium was changed three times per week. After culture for 10 days, the remaining tracheae were worked up by being fixed in 10% strength buffered formaldehyde solution and embedded in paraffin. […] Dose-effect curves of the novel compounds were recorded. Table 1 below gives the extrapolated molar doses which suppress keratinization in half the cultures (ED 50%).

[4] = concentration 0.1%, Rhino mouse
[5] = concentration 0.1%, rabbit ear, two weeks
[6] = hamster tracheal culture, 10 days, serum-free, extrapolated from dose-effect curves, read-out: ED50 (molar dose which suppresses keratinization in half the cultures) (converted)
[7] = concentration 0.2%, Rhino mouse

Q: For `C/C(=C\c1ccc(C(=O)O)cc1)c1cc2c(cc1C)C(C)(C)CCC2(C)C` [Example 2, E-4-[2-methyl-2-(1,1,4,4,6-pentamethyl-1,2,3,4-tetrahydronaphth-7-yl)-vinyl]-benzoic acid], which inhibition in vivo at 0.1 % [1, 4] is on record?
A: 68%

Q: And the inhibition in vivo at 0.1 % (comedos; [5])?
A: 73%

Q: What about the Erythema [2] of the same molecule?
A: 2.8

Q: And the Scaling [2]?
A: 2.7

Q: And the “induction of cell differentiation to give mature granulocytes” value [3]?
A: induce cell differentiation to give mature granulocytes

Q: And the IC50 (tracheal epithelium; [6])?
A: 10 pM

Q: With `C/C(=C\c1ccc(C(=O)O)cc1)c1cc2c(cc1CC(C)C)C(C)(C)C(C)C2(C)C` (centres unmarked) [Example 18, E4-[2-methyl-2-(1,1,2,3,3-pentamethyl-5-(2-methylpropyl)-indan-6-yl)-vinyl]-benzoic acid] as the molecule, how does the inhibition in vivo at 0.2 % [1, 7] read?
A: 42%

Q: With `C/C(=C\c1ccc(C(=O)O)cc1)c1cc2c(cc1C(C)C)C(C)(C)CCC2(C)C` [Example 7, E4-[2-methyl-2-(1,1,4,4-tetramethyl-6-isopropyl-1,2,3,4-tetrahydronaphth-7-yl)-vinyl]benzoic acid] as the molecule, how does the inhibition in vivo at 0.1 % [1, 4] read?
A: 62%

Q: And the inhibition in vivo at 0.1 % (comedos; [5])?
A: 59%

Q: What about the Erythema [2] of the same molecule?
A: 3.0

Q: What about the Scaling [2] of the same molecule?
A: 3.0

Q: What about the IC50 (tracheal epithelium; [6]) of the same molecule?
A: 10 pM

Q: Which IC50 (tracheal epithelium; [6]) does the source give for `C/C(=C\c1ccc(C(=O)Nc2ccc(O)cc2)cc1)c1ccc2c(c1)C(C)(C)CCC2(C)C` [Example 31, E-4-[2-methyl-2-(1,1,4,4-tetramethyl-1,2,3,4-tetrahydronaphth-7-yl)-vinyl]-benzoic acid 4-hydroxyanilide] here?
A: 3 pM

Q: Which inhibition in vivo at 0.2 % [1, 7] does the source give for `C/C(=C/c1ccc(C(=O)O)cc1)c1cc2c(cc1CC(C)C)C(C)(C)CCC2(C)C` [Example 17, Z4-[2-methyl-2-(1,1,4,4-tetramethyl-6-(2-methylpropyl)-1,2,3,4-tetrahydronaphth-7-yl)-vinyl]-benzoic acid] here?
A: 62%

Q: And the inhibition in vivo at 0.2 % (comedos; concentration 0.2%, rabbit ear, two weeks)?
A: 56%

Q: Which results are given for `C/C(=C/c1ccc(C(=O)O)cc1)c1cc2c(cc1C)C(C)(C)CCC2(C)C` [Example 10, Z4-[2-methyl-2-(1,1,4,4,6-pentamethyl-1,2,3,4-tetrahydronaphth-7-yl)-vinyl]-benzoic acid]?
A: inhibition in vivo at 0.1 % [1, 4]: 49%; inhibition in vivo at 0.1 % (comedos; [5]): 31%

Q: Which results are given for `C/C(=C\c1ccc(C(=O)O)cc1)c1cc2c(cc1CC(C)C)C(C)(C)CCC2(C)C` [Example 8, E4-[2-methyl-2-(1,1,4,4-tetra-methyl-6-(2-methylpropyl)-1,2,3,4-tetrahydronaphth-7-yl)-vinyl]-benzoic acid]?
A: inhibition in vivo at 0.1 % [1, 4]: 52%; inhibition in vivo at 0.1 % (comedos; [5]): 62%; Erythema [2]: 1.4; Scaling [2]: 1.0

Q: What does the source list for `CCCCCCCCc1cc2c(cc1/C(C)=C/c1ccc(C(=O)O)cc1)C(C)(C)CCC2(C)C` [Example 15, E4-[2-methyl-2-(1,1,4,4-tetramethyl-6-n-octyl-1,2,3,4-tetrahydronaphth-7-yl)-vinyl]-benzoic acid]?
A: inhibition in vivo at 0.1 % [1, 4]: 59%; inhibition in vivo at 0.1 % (comedos; [5]): 59%

Q: For `CCCc1cc2c(cc1/C(C)=C/c1ccc(C(=O)O)cc1)C(C)(C)CCC2(C)C` [Example 11, E4-[2-methyl-2-(1,1,4,4-tetramethyl-6-propyl-1,2,3,4-tetrahydronaphth-7-yl)-vinyl]-benzoic acid], which inhibition in vivo at 0.1 % [1, 4] is on record?
A: 59%

Q: What about the inhibition in vivo at 0.1 % (comedos; [5]) of the same molecule?
A: 40%

Q: `C/C(=C\c1ccc(C(=O)O)cc1)c1cc2c(cc1CCC(C)C)C(C)(C)C(C)C2(C)C` (centres unmarked) [Example 25, E4-[2-methyl-2-(1,1,2,3,3-pentamethyl-5-(3-methylbutyl)-indan-6-yl)-vinyl]-benzoic acid] was tested. Which inhibition in vivo at 0.2 % [1, 7] did it give?
A: 60%

Q: How did the IC50 (tracheal epithelium; [6]) turn out when `C/C(=C\c1ccc(C(=O)Nc2ccc(O)cc2)cc1)c1ccc2c(c1)C(C)(C)C(C)C2(C)C` (centres unmarked) [Example 32, E-4-[2-methyl-2-(1,1,2,3,3-pentamethylindan-6-yl)-vinyl]-benzoic acid 4-ydroxyanilide] was run?
A: 1 pM

Q: For `CCOC(=O)c1ccc(/C=C(\C)c2cc3c(cc2CC(C)C)C(C)(C)CCC3(C)C)cc1` [Example 19, ethyl E4-[2-methyl-2-(1,1,4,4-tetramethyl-6-(2-methylpropyl)-1,2,3,4-tetrahydronaphth-7-yl)-vinyl]-benzoate], which inhibition in vivo at 0.1 % [1, 4] is on record?
A: 12%

Q: How did the IC50 (tracheal epithelium; [6]) turn out when `C/C(=C\c1ccc(C(=O)Nc2nnn[nH]2)cc1)c1ccc2c(c1)C(C)(C)C(C)C2(C)C` (centres unmarked) [Example 40, E-4-[2-methyl-2-(1,1,2,3,3,- pentamethylindan-6-yl)-vinyl]-N(tetrazol-5-yl)-benzamide] was run?
A: 1 pM

Q: With `CCOC(=O)c1ccc(/C=C(\C)c2cc3c(cc2C(C)C)C(C)(C)CCC3(C)C)cc1` [Example 6, Ethyl E4-[2-methyl-2-(1,1,4,4-tetramethyl-6-isopropyl-1,2,3,4-tetrahydronaphth-7-yl)-vinyl]-benzoate] as the molecule, how does the inhibition in vivo at 0.1 % [1, 4] read?
A: 59%

Q: What about the inhibition in vivo at 0.1 % (comedos; [5]) of the same molecule?
A: 68%

Q: How did the inhibition in vivo at 0.1 % ([1]; Mus musculus) turn out when `CC1=C(/C=C/C(C)=C/C=C/C(C)=C/C(=O)O)C(C)(C)CCC1` [Vitamin A acid, reference compound] was run?
A: 60%

Q: What about the inhibition in vivo at 0.1 % (comedos) of the same molecule?
A: 67%

Q: What about the Erythema [2] of the same molecule?
A: 3.0

Q: And the Scaling [2]?
A: 3.0

Q: And the IC50 (tracheal epithelium; read-out: ED50 (molar dose which suppresses keratinization in half the cultures))?
A: 10 pM

Q: `COC(=O)c1ccc(/C=C(\C)c2cc3c(cc2CC(C)C)C(C)(C)CCC3(C)C)cc1` [Example 20, methyl E4-[2-methyl-2-(1,4,4-tetramethyl-6-(2-methylpropyl)-1,2,3,4-tetrahydronaphth-7-yl)-vinyl]-benzoate] was tested. Which inhibition in vivo at 0.1 % [1, 4] did it give?
A: 6%

Q: `CCOC(=O)c1ccc(/C=C(\C)c2cc3c(cc2C)C(C)(C)CCC3(C)C)cc1` [Example 1, Ethyl E-4-[2-methyl-2-(1,1,4,4,6-pentamethyl-1,2,3,4-tetrahydronaphth-7-yl)-vinyl]-benzoate] was tested. Which inhibition in vivo at 0.1 % [1, 4] did it give?
A: 65%

Q: What about the inhibition in vivo at 0.1 % (comedos; [5]) of the same molecule?
A: 75%

Q: How did the inhibition in vivo at 0.2 % [1, 7] turn out when `C/C(=C\c1ccc(C(=O)O)cc1)c1cc2c(cc1CCC(C)C)C(C)(C)CCC2(C)C` [Example 23, E4-[2-methyl-2-(1,1,4,4-tetra-methyl-6-(3-methylbutyl)-1,2,3,4-tetrahydronaphth-7-yl)-vinyl]-benzoic acid] was run?
A: 62%

Q: Which results are given for `CCCCc1cc2c(cc1/C(C)=C/c1ccc(C(=O)O)cc1)C(C)(C)CCC2(C)C` [Example 14, E4-[2-methyl-2-(1,1,4,4-tetramethyl-6-n-butyl-1,2,3,4-tetrahydronaphth-7-yl)-vinyl]-benzoic acid]?
A: inhibition in vivo at 0.1 % [1, 4]: 64%; inhibition in vivo at 0.1 % (comedos; [5]): 79%

Q: Which inhibition in vivo at 0.1 % [1, 4] does the source give for `CCc1cc2c(cc1/C(C)=C/c1ccc(C(=O)O)cc1)C(C)(C)CCC2(C)C` [Example 5, E4-[2-methyl-2-(1,1,4,4-tetramethyl-6-ethyl-1,2,3,4-tetrahydronaphth-7-yl)-vinyl]-benzoic acid] here?
A: 69%

Q: And the inhibition in vivo at 0.1 % (comedos; [5])?
A: 54%

Q: And the Erythema [2]?
A: 2.0

Q: What about the Scaling [2] of the same molecule?
A: 1.7

Q: Which “Decrease in % (number of utriculi / cysts)” value [1, 7] does the source give for `CCCCCCCCc1cc2c(cc1/C(C)=C/c1ccc(C(=O)O)cc1)C(C)(C)C(C)C2(C)C` (centres unmarked) [Example 24, E4-[2-methyl-2-(1,1,2,3,3-pentamethyl-5-n-octyl-indan-6-yl)-vinyl]-benzoic acid] here?
A: 42%
